“Also recorded” adds a separate entry of the source.
What was measured:
[1] = system: C57BL/6NCrl mice; assay: Anti-Ova total IgG titres in serum of immunized mice (ELISA); assay type: in vivo; conditions: day 28, two immunizations, 1 μg Ova and 1 mg SLA
Source text: (§1) C57BL/6NCrl mice (6-8 weeks) were obtained from Charles River Laboratories (Saint-Constant, QC, Canada). Mice were maintained in individually ventilated cages with five female mice to a cage with easy access to food and water in a specific pathogen-free small animal facility with automatically controlled light/dark cycles, humidity and temperature at the National Research Council of Canada (NRC) in accordance with the guidelines of the Canadian Council on Animal Care. The animal use protocol (2016.08) was approved by the NRC Animal Care Committee. All mice were randomized upon entering the facility and were immunized and had samples collected and tested in a blinded method.
C57BL/6NCrl mice were immunized by i.m. injection (50 μL) into the left tibialis anterior muscle. All mice were immunized twice in a prime/boost regime on day 0 and day 21. […]
Anti-Ova total IgG titers in mouse serum were quantified by ELISA as described previously.^11-12 Briefly, 96-well high-binding ELISA plates (Thermo Fisher Scientific, Waltham, MA, USA) were coated overnight with 10 μg/mL of the Ova protein used for immunization. […] No detectable titers were measured in serum samples from naïve control animals.
(§2) Data were analyzed using GraphPad Prism 9® (GraphPad Software, San Diego, CA, USA). […]

[2] = system: C57BL/6NCrl mice; assay: Enumeration of IFN-γ secreting Ova-CD8+ T cells in spleen by ELISPOT; assay type: in vivo; conditions: for Number of IFN γ-secreting Ova-CD8+ T cells, comparison with AddaVax-Ova (ANOVA, Tukey) / Number of IFN γ-secreting Ova-CD8+ T cells, comparison with MPL/alum-Ova (ANOVA, Tukey): 10 μg Ova and 1 mg SLA; for Change in ability to induce IFN-γ+ Ova-CD8+ T cells on reducing SLA dose: 1.0 mg reduced to 0.3 mg SLA; for Differences between SLA formulations to produce IFN-γ+ Ova-CD8+ T cells: at each dose tested
Source text: as §1
(§3) C57BL/6NCrl mice were immunized by i.m. injection (50 μL) into the left tibialis anterior muscle. All mice were immunized twice in a prime/boost regime on day 0 and day 21. Blood samples were taken for sera collection before boost on day 20 as well as on day 28 immediately prior to euthanasia where whole spleens were collected in necropsy.
(§4) SLA archaeosomes were prepared as described previously.^12 Briefly, SLA lipids (SLA-1, SLA-2 or SLA-3) were dissolved in chloroform/methanol and aliquoted to a glass vial; the organic solvent was removed under N2 gas with mild heating to form a thin lipid layer. A vacuum was applied for at least 2 h to ensure total removal of trace solvents. The lipid film was then hydrated with 1.0 mL of Milli-Q water and was shaken for 2 h at 40° C. or until hydration was completed. Archaeosome vesicles were reduced in size using a tabletop ultrasonic water bath (Fisher Scientific FS60H, 130 W and operating frequency of 40 kHz) and high pressure; they were then left to anneal at 4° C. for 12 h in static conditions and finally filter-sterilized through 0.22 μm filter units. The Ova protein solution (type VI, Sigma-Aldrich, Oakville, ON, Canada) was then added to the empty archaeosomes at the desired amount immediately before immunization so that a single dose contained 1 mg or 0.3 mg of SLA and 10 μg or 1 μg of antigen. The commercial adjuvant AddaVax™ (squalene-oil-in-water emulsion, Invivogen, San Diego, CA, USA) was prepared according to manufacturer's recommendations and mixed with 10 μg Ova protein at 1:1, v:v. The TLR4 agonist monophosphoryl Lipid A (MPLA from S. Minnesota R595 VacciGrade, InvivoGen, San Diego, CA, USA) was combined with Alum (Alhydrogel™ “85”, aluminum hydroxide, Brenntag Biosector, Frederikssund, Denmark), 10 μg: 40 μg respectively and 1 μg Ova. All solutions were brought to a physiological pH of 7.4 in phosphate-buffered saline (PBS).
The Enumeration of IFN-γ secreting cells was done by use of an ELISPOT assay as previously described.^12 Briefly, spleen cells (at a final cell density of 4×10^5 cells/well) were added to 96-well ELISPOT plates coated with anti-IFN-γ (Mabtech Inc., Cincinnati, OH, USA), and incubated in the presence of a peptide stimulant (or non-stimulant control) for 20 h at 37° C., 5% CO2. Peptide stimulant consisted of SIINFEKL, an Ovalbumin CD8^+ T cell epitope Ova257-264. Plates were then incubated, washed and developed using AEC substrate (Becton Dickinson, Franklin Lakes, NJ, USA) and counted using an automated ELISPOT plate reader by BIOSYS (Miami, FL, USA).
Data were analyzed using GraphPad Prism 9® (GraphPad Software, San Diego, CA, USA). Antibody titers were log transformed prior to testing and shown as geometric mean titer (GMT) with the lower and upper 95% confidence interval shown in the graph and written in the text. All in vivo generated data were analyzed with the one-way analysis of variance (ANOVA) test followed by post-hoc analysis using Tukey's multiple comparisons test (comparisons among all groups), as indicated in the figure legends. For all analyses, differences were considered to be not significant with p>0.05.

[3] = system: C57BL/6NCrl mice; assay: In vivo cytotoxicity assay of Ova-CD8+ T cells; conditions: for In vivo cytotoxicity of Ova-CD8+ T cells, comparison with AddaVax-Ova (ANOVA, Tukey): 10 μg Ova and 1 mg SLA, target cells injected day 27, read day 28; for Change in cytotoxic killing on reducing SLA dose: 1.0 mg reduced to 0.3 mg SLA; for CD8+ T cell cytotoxicity at lower Ova antigen or SLA adjuvant dose: lower dose (1 μg Ova or 0.3 mg SLA) versus optimal dose
Source text: as §1, §3, §4
The activity of antigen-specific CD8^+ T cells (CTL) was measured in vivo as previously described.^10 Briefly, donor spleen-cell suspensions from naïve C57BL/6NCrl mice were prepared. Cells were split into two aliquots. One aliquot was incubated at 37° C. with […] SIINFEKL (JPT Peptide Technologies GmbH) in RIO complete medium (RPMI 1640 with 10% heat-inactivated fetal bovine serum, 1% penicillin/streptomycin, 1% glutamine and 55 μM 2-mercaptoethanol) (Thermo Fisher Scientific, Waltham, MA, USA). After 30 min of incubation, the peptide-pulsed aliquot was stained with a high 10× concentration of CFSE (2.5 μM; Thermo Fisher Scientific); the second non-peptide-pulsed aliquot was stained with 1×CFSE ([…]). Two aliquots of cells (10×10^6/each) were mixed 1:1 and injected into previously immunized recipient mice. Mice injected with Ova alone dissolved in PBS served as controls. At ˜20 to 22 h after the donor cell transfer, spleens were removed from recipients, single-cell suspensions prepared, and cells analyzed by flow cytometry on a BD Fortessa flow cytometer (Becton Dickinson, Franklin Lakes, NJ, USA). The in vivo percentage of peptide pulsed targets relative to non-peptide pulsed targets was enumerated according to a previously published equation.^21, 24-25
as §2

Compound	Anti-Ova IgG titres, comparison with MPL/alum (one-way ANOVA, Tukey) [1]	Number of IFN γ-secreting Ova-CD8+ T cells, comparison with AddaVax-Ova (ANOVA, Tukey) ([2]; day 28)	Number of IFN γ-secreting Ova-CD8+ T cells, comparison with MPL/alum-Ova (ANOVA, Tukey) ([2]; day 28)	Change in ability to induce IFN-γ+ Ova-CD8+ T cells on reducing SLA dose [2]	Adjuvant effectiveness relative to SLA-1 (IFN-γ ELISPOT) ([2]; FIG. 7)	Differences between SLA formulations to produce IFN-γ+ Ova-CD8+ T cells [2]	In vivo cytotoxicity of Ova-CD8+ T cells, comparison with AddaVax-Ova (ANOVA, Tukey) [3]	Change in cytotoxic killing on reducing SLA dose [3]	Adjuvant effectiveness relative to SLA-1 (cytotoxic killing) ([3]; FIG. 8)	CD8+ T cell cytotoxicity at lower Ova antigen or SLA adjuvant dose [3]	IFN-γ detectable spots ([2]; Ova antigen alone, unadjuvanted, day 28)
CC(C)CCCC(C)CCCC(C)CCCC(C)CCOCC(CO[C@@H]1OC(CO)C(O[C@@H]2OC(COS(=O)(=O)O)C(O)[C@H](O)C2O)[C@H](O)C1O)OCCC(C)CCCC(C)CCCC(C)CCCC(C)C (mixture of isomers) [SLA-3]	SLA-3>MPL/alum-Ova	SLA-3>AddaVax™-Ova	SLA-3>MPL/alum-Ova	Lesser reductions	at least as effective as SLA-1; also recorded: as effective an adjuvant as semi-synthetically produced SLA	no statistically significant differences	SLA-3>AddaVax™-Ova	Lesser reductions	at least as effective as SLA-1	lower CD8^+ T cell cytotoxicity	
CC(C)CCCC(C)CCCC(C)CCCC(C)CCOC[C@@H](CO[C@@H]1O[C@H](CO)[C@@H](O[C@@H]2O[C@H](COS(=O)(=O)O)[C@H](O)[C@H](O)[C@H]2O)[C@H](O)[C@H]1O)OCCC(C)CCCC(C)CCCC(C)CCCC(C)C (stereo partly drawn) [SLA-1, 6′-sulfate-β-D-Galp-(1,4)-β-D-Glcp-(1,1)-archaeol, reference compound]	SLA-1>MPL/alum-Ova	SLA-1>AddaVax™-Ova	SLA-1>MPL/alum-Ova	significantly reduces		no statistically significant differences	SLA-1>AddaVax™-Ova	significantly reduces		lower CD8^+ T cell cytotoxicity	
Ova: Ova protein (type VI, Sigma-Aldrich), model antigen; unadjuvanted control group [reference compound]											less than three

Source: patent publication US20250084116A1, “MIXTURE OF STEREOISOMERS OF A SULFATED GLYCOLIPID” (NATIONAL RESEARCH COUNCIL OF CANADA, priority 2022, published 2025)
